{
  "source": "patent US10689399B2",
  "about": "“Substituted 3,4,5,6,8,10,14,14a-octahydro-2h-2,6-methanopyrido[1′,2′:4,5]pyrazino[2,1-b][1,3]oxazocines and methods for treating viral infections” (Gilead Sciences, Inc., priority 2012, dated 2020)",
  "test_system": "HIV-IIIb",
  "assay": "Antiviral assay in MT4 cells",
  "assay_type": "cell-based",
  "details": "Human immunodeficiency virus 1, IIIB, MT4, 120 h",
  "summary_of_the_method": "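MT4 cells pre-infected with HIV-IIIb (0.004 m.o.i.) at 37 °C, or mock-infected, then seeded at 2000 cells/well onto 3-fold serially diluted compound (10 concentrations, quadruplicate) in RPMI 1640 with 10% FBS. After 5 days at 37 °C, cell viability read by CellTiter-Glo luminescence.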",
  "key": {"[1]": {"details": "MT4 cells infected with HIV-IIIb, 5 days, CellTiter-Glo, read-out: EC50 nM in MT-4"}},
  "note": "Like-named read-outs stand apart in the source and are kept apart here.",
  "data": [
    {"smiles": "O=C(NCc1c(F)cc(F)cc1F)c1cn2c(c(O)c1=O)C(=O)N1[C@H]3CC[C@H](C3)[C@@H]1C2", "note": "[Compound 41, (1R,4S,12aR)-7-hydroxy-6,8-dioxo-N-(2,4,6-trifluorobenzyl)-1,2,3,4,6,8,12,12a-octahydro-1,4-methanodipyrido[1,2-a:1′,2′-d]pyrazine-9-carboxamide]", "values": [
      {"measurement": "EC50", "setting": "[1]", "value": 2.1, "unit": "nM"}
    ]},
    {"smiles": "C[C@@H]1CCO[C@H]2Cn3cc(C(=O)NC4(c5ccc(F)cc5F)CC4)c(=O)c(O)c3C(=O)N12", "note": "[Compound 5, (4R,12aS)—N-(1-(2,4-difluorophenyl)cyclopropyl)-7-hydroxy-4-methyl-6,8-dioxo-3,4,6,8,12,12a-hexahydro-2H-[1,3]oxazino[3,2-d]pyrido[1,2-a]pyrazine-9-carboxamide]", "values": [
      {"measurement": "EC50", "setting": "[1]", "value": 8.1, "unit": "nM"}
    ]},
    {"smiles": "O=C(NCc1ccc(F)c(F)c1)c1cn2c(c(O)c1=O)C(=O)N1[C@@H]3CC[C@@H](C3)O[C@H]1C2", "note": "[Compound 18, (2S,5R,13aS)—N-(3,4-difluorobenzyl)-8-hydroxy-7,9-dioxo-2,3,4,5,7,9,13,13a-octahydro-2,5-methanopyrido[1′,2′:4,5]pyrazino[2,1-b][1,3]oxazepine-10-carboxamide]", "values": [
      {"measurement": "EC50", "setting": "[1]", "value": 4.1, "unit": "nM"}
    ]},
    {"smiles": "O=C(NCc1ccc(Cl)cc1F)c1cn2c(c(O)c1=O)C(=O)N1[C@H]3CC[C@H](C3)[C@@H]1C2", "note": "[Compound 92, (1R,4S,12aR)—N-(4-chloro-2-fluorobenzyl)-7-hydroxy-6,8-dioxo-1,2,3,4,6,8,12,12a-octahydro-1,4-methanodipyrido[1,2-a:1′,2′-d]pyrazine-9-carboxamide]", "values": [
      {"measurement": "EC50", "setting": "[1]", "value": 18.6, "unit": "nM"}
    ]},
    {"smiles": "O=C(NC1(c2ccc(F)cc2F)CC1)c1cn2c(c(O)c1=O)C(=O)N1C(C2)O[C@H]2CCC[C@@H]1C2", "note": "(stereo partly drawn) [Compound 28, (2 S,6R)—N-(1-(2,4-difluorophenyl)cyclopropyl)-9-hydroxy-8,10-dioxo-3,4,5,6,8,10,14,14a-octahydro-2H-2,6-methanopyrido[1′,2′:4,5]pyrazino[2,1-b][1,3]oxazocine-11-carboxamide]", "values": [
      {"measurement": "EC50", "setting": "[1]", "value": 15.6, "unit": "nM"}
    ]},
    {"smiles": "O=C(NCc1c(Cl)ccc(Cl)c1F)c1cn2c(c(O)c1=O)C(=O)N1[C@H]3CC[C@H](C3)[C@@H]1C2", "note": "[Compound 71, (1R,4S,12aR)—N-(3,6-dichloro-2-fluorobenzyl)-7-hydroxy-6,8-dioxo-1,2,3,4,6,8,12,12a-octahydro-1,4-methanodipyrido[1,2-a:1′,2′-d]pyrazine-9-carboxamide]", "values": [
      {"measurement": "EC50", "setting": "[1]", "value": 2.6, "unit": "nM"}
    ]},
    {"smiles": "C[C@H]1C[C@@H]2C[C@H]1O[C@H]1Cn3cc(C(=O)NCc4ccc(F)cc4F)c(=O)c(O)c3C(=O)N21", "note": "[Compound 39, (2R,3S,5R,13aS)—N-(2,4-difluorobenzyl)-8-hydroxy-3-methyl-7,9-dioxo-2,3,4,5,7,9,13,13a-octahydro-2,5-methanopyrido[1′,2′:4,5]pyrazino[2,1-b][1,3]oxazepine-10-carboxamide]", "values": [
      {"measurement": "EC50", "setting": "read-out: EC50 nM in MT-4, MT4 cells infected with HIV-IIIb, 5 days, CellTiter-Glo", "value": 3.6, "unit": "nM"}
    ]},
    {"smiles": "O=C(NCc1cccc(Cl)c1Cl)c1cn2c(c(O)c1=O)C(=O)N1[C@H]3CC[C@H](C3)[C@@H]1C2", "note": "[Compound 60, (1R,4S,12aR)—N-(2,3-dichlorobenzyl)-7-hydroxy-6,8-dioxo-1,2,3,4,6,8,12,12a-octahydro-1,4-methanodipyrido[1,2-a:1′,2′-d]pyrazine-9-carboxamide]", "values": [
      {"measurement": "EC50", "setting": "[1]", "value": 2.1, "unit": "nM"}
    ]},
    {"smiles": "O=C(NCc1ccc(F)c(Cl)c1F)c1cn2c(c(O)c1=O)C(=O)N1[C@@H]3C[C@H]([C@@H]1C2)C(F)(F)C3", "note": "[Compound 58, (1R,4R,12aR)—N-(3-chloro-2,4-difluorobenzyl)-2,2-difluoro-7-hydroxy-6,8-dioxo-1,2,3,4,6,8,12,12a-octahydro-1,4-methanodipyrido[1,2-a:1′,2′-d]pyrazine-9-carboxamide]", "values": [
      {"measurement": "EC50", "setting": "[1]", "value": 1.5, "unit": "nM"}
    ]},
    {"smiles": "C[C@H]1C[C@@H]2C[C@H]1N1C(=O)c3c(O)c(=O)c(C(=O)NCc4c(F)cc(F)cc4F)cn3C[C@H]21", "note": "[Compound 86, (1R,3S,4R,12aS)-7-hydroxy-3-methyl-6,8-dioxo-N-(2,4,6-trifluorobenzyl)-1,2,3,4,6,8,12,12a-octahydro-1,4-methanodipyrido[1,2-a:1′,2′-d]pyrazine-9-carboxamide]", "values": [
      {"measurement": "EC50", "setting": "[1]", "value": 2.3, "unit": "nM"}
    ]},
    {"smiles": "O=C(NCc1ccc(F)cc1F)c1cn2c(c(O)c1=O)C(=O)N1C(C2)[N@]2CC[C@H]1C2", "note": "(stereo partly drawn) [Compound 6, (1R,4S)—N-(2,4-difluorobenzyl)-7-hydroxy-6,8-dioxo-3,4,6,8,12,12a-hexahydro-2H-1,4-methanopyrido[1′,2′:4,5]pyrazino[1,2-a]pyrimidine-9-carboxamide]", "values": [
      {"measurement": "EC50", "setting": "[1]", "value": 5.3, "unit": "nM"}
    ]},
    {"smiles": "C[C@H](NC(=O)c1cn2c(c(O)c1=O)C(=O)N1[C@H]3CC[C@H](C3)O[C@@H]1C2)c1ccc(F)cc1F", "note": "[Compound 14, (2R,5S,13aR)—N—((S)-1-(2,4-difluorophenyl)ethyl)-8-hydroxy-7,9-dioxo-2,3,4,5,7,9,13,13a-octahydro-2,5-methanopyrido[1′,2′:4,5]pyrazino[2,1-b][1,3]oxazepine-10-carboxamide]", "values": [
      {"measurement": "EC50", "setting": "[1]", "value": 65.5, "unit": "nM"}
    ]},
    {"smiles": "C[C@@H](NC(=O)c1cn2c(c(O)c1=O)C(=O)N1[C@H]3CC[C@H](C3)[C@@H]1C2)c1ccc(F)cc1F", "note": "[Compound 43, (12aR)—N—((R)-1-(2,4-difluorophenyl)ethyl)-7-hydroxy-6,8-dioxo-1,2,3,4,6,8,12,12a-octahydro-1,4-methanodipyrido[1,2-a:1′,2′-d]pyrazine-9-carboxamide]", "values": [
      {"measurement": "EC50", "setting": "[1]", "value": 6.9, "unit": "nM"}
    ]},
    {"smiles": "O=C(NC1(c2ccc(F)cc2F)CC1)c1cn2c(c(O)c1=O)C(=O)N1C(C2)O[C@@H]2CC[C@H]1C2", "note": "(stereo partly drawn) [Compound 31, (2R,5S)—N-(1-(2,4-difluorophenyl)cyclopropyl)-8-hydroxy-7,9-dioxo-2,3,4,5,7,9,13,13a-octahydro-2,5-methanopyrido[1′,2′:4,5]pyrazino[2,1-b][1,3]oxazepine-10-carboxamide]", "values": [
      {"measurement": "EC50", "setting": "[1]", "value": 9, "unit": "nM"}
    ]},
    {"smiles": "O=C(NCc1ccc(F)c(C(F)(F)F)c1)c1cn2c(c(O)c1=O)C(=O)N1[C@@H]3CC[C@@H](C3)O[C@H]1C2", "note": "[Compound 25, (2S,5R,13aS)—N-(4-fluoro-3-(trifluoromethyl)benzyl)-8-hydroxy-7,9-dioxo-2,3,4,5,7,9,13,13a-octahydro-2,5-methanopyrido[1′,2′:4,5]pyrazino[2,1-b][1,3]oxazepine-10-carboxamide]", "values": [
      {"measurement": "EC50", "setting": "[1]", "value": 26.2, "unit": "nM"}
    ]},
    {"smiles": "O=C(NCc1ccc(F)c(F)c1F)c1cn2c(c(O)c1=O)C(=O)N1[C@H]3CC[C@H](C3)[C@@H]1C2", "note": "[Compound 91, (1R,4S,12aR)-7-hydroxy-6,8-dioxo-N-(2,3,4-trifluorobenzyl)-1,2,3,4,6,8,12,12a-octahydro-1,4-methanodipyrido[1,2-a:1′,2′-d]pyrazine-9-carboxamide]", "values": [
      {"measurement": "EC50", "setting": "[1]", "value": 5, "unit": "nM"}
    ]},
    {"smiles": "O=C(NC1(c2ccc(F)cc2F)CC1)c1cn2c(c(O)c1=O)C(=O)N1C(C2)O[C@@H]2CCC[C@H]1C2", "note": "(stereo partly drawn) [Compound 29, (2R,6S)—N-(1-(2,4-difluorophenyl)cyclopropyl)-9-hydroxy-8,10-dioxo-3,4,5,6,8,10,14,14a-octahydro-2H-2,6-methanopyrido[1′,2′:4,5]pyrazino[2,1-b][1,3]oxazocine-11-carboxamide]", "values": [
      {"measurement": "EC50", "setting": "[1]", "value": 13.9, "unit": "nM"}
    ]},
    {"smiles": "O=C(NC1(c2ccc(F)cc2F)CCCC1)c1cn2c(c(O)c1=O)C(=O)N1C(C2)O[C@H]2CC[C@@H]1C2", "note": "(stereo partly drawn) [Compound 33, (2S,5R)—N-(1-(2,4-difluorophenyl)cyclopentyl)-8-hydroxy-7,9-dioxo-2,3,4,5,7,9,13,13a-octahydro-2,5-methanopyrido[1%2′: 4,5]pyrazino[2,1-b][1,3]oxazepine-10-carboxamide]", "values": [
      {"measurement": "EC50", "setting": "[1]", "value": 43.5, "unit": "nM"}
    ]}
  ]
}
